Consider five compounds from patent US9486544B2, “Manganese chelates and their use as contrast agents in magnetic resonance imaging (MRI)” (GE Healthcare AS, priority 2009, dated 2016).

Common to all, as to format: physicochemical
Series [1] is described as follows: Relaxivity analysis in water. As to conditions: degassed Millipore water, 0.05 to 1 mM complex. The procedure: (§1) The relaxivity measurements were performed with a range of 0.05 to 1 mM complex solutions on a Bruker Minispec PC 120b-NA 770, at 20 MHz or a Bruker Minispec Mq 60m at 60 MHz and 37° C. The solutions were obtained by dissolving the appropriate amount of chelate in degassed Millipore water or human serum.

Series [2] in a line: Kinetic stability: exchange reaction with Zn2+ in acetate buffer, monitored by relaxivity. The note with it: acetate buffer with Zn2+ challenge, acetate buffer 10 mM, 25° C., chelate approx. 0.5 mM, read-out: Dissociation Half life t1/2. The procedure: The kinetic stability of manganous chelates was characterized by the rates of exchange reaction with Zn^2+, in acetate buffer (10 mM) set to various pH. The increase of free manganous ions was monitored using a Bruker Minispec PC 120b-NA 770, at 20 MHz and 25° C. The total ionic strength was adjusted to 0.5M with KCl. The chelate concentration was approximately 0.5 mM for all measurements.
The change in concentration of chelated manganese, upon challenge with zinc ions, was monitored spectroscopically. When zinc displaces a manganous ion a net increase in relaxivity was observed as the free manganous ion has a relaxivity of ˜10 mM^−1s^−1, whereas the studied manganese chelates have a lower relaxivity.
The pseudo first-order rate constants (kobs) were calculated by fitting the relaxivity data to the following equation: […] in which At, A0, and Ae are the relaxivity values at time t, the start of the reaction, and at equilibrium, respectively. The dissociation half life was derived from kobs.

Series [3] in a line: Relaxivity analysis in human serum. As to conditions: 0.05 to 1 mM complex. The procedure: as §1
Series [4] in a line: Water exchange measurements (variable-temperature 17O NMR). As to conditions: TRIS 0.05 M pH 7.4, 6 to 15 mM complex. As for the experimental part:
Water Exchange Measurements
The water exchange measurements were performed with 6 to 15 mM complex solutions. The solutions were obtained by dissolving the appropriate amount of complex in 0.6 mL of buffer solution (TRIS, 0.05 M, pH 7.4 in degassed Millipore water at ca. 3 atom % ^17O-enrichment); Variable-temperature Fourier transform ^17O NMR spectra were recorded at a frequency of 40.7 MHz on a Varian Unity 300 MHz spectrometer. The temperatures were measured using methanol and ethylene glycol standards. The temperature dependence of the ^17O line broadening for each system was measured over a temperature range from 273.7 to 356.1 K. Each temperature was calibrated using a methanol or ethylene glycol standard.

Read-outs that look alike come from different tables or passages of the source.

`O=C(O)CN1CCN2CC(=O)[O][Mn][O]C(=O)CN(CC1)Cc1cccc(n1)C2` [Compound disclosed in US5334371, reference compound]: in series [1], the “Relaxivity Water @ 20 MHz, 37° C.” value came out at 1.3 mM⁻¹ s⁻¹.
With `O=C1CN2CCNCCN(CC(=O)[O][Mn][O]1)Cc1cccc(n1)C2` [Compound disclosed in US5334371, reference compound], the half-life at 0.5 mM in series [2] (pH 4.6, pH 4.6, [Zn] 10 mM) worked out at 3 min; in series [2] (pH 5, pH 5.0, [Zn] 10 mM), 6 min; in series [2] (pH 5.2, pH 5.2, [Zn] 10 mM), 9 min; in series [2] (pH 5.2, pH 5.2, [Zn] 20 mM), 10 min; in series [2] (pH 5.4, pH 5.4, [Zn] 10 mM) it was 15 min; in series [2] (pH 5.6, pH 5.6, [Zn] 10 mM) it was 22 min. In addition, in series [2] (pH 5.6, pH 5.6, [Zn] 20 mM), the half-life at 0.5 mM is 23 min.
As for `CN1CCN2CC(=O)[O][Mn][O]C(=O)CN(CC1)Cc1cccc(n1)C2` [Example 1, manganese(II) complex of 3,6,9,15-tetraaza-3,9-bis-(carboxymethyl)-6-methyl-bicyclo[9.3.1]pentadeca-1(14),11(15),12-triene], in series [1], the “Relaxivity Water @ 20 MHz, 37° C.” value amounted to 2.4 mM⁻¹ s⁻¹. Moreover, in series [3], the “Relaxivity Human Serum @ 60 MHz, 37° C.” value came to 4.6 mM⁻¹ s⁻¹. For the same compound, the Water residence time in series [4] is on record as 16 ns. Besides, the half-life at 0.5 mM in series [2] (pH 4.6, pH 4.6, [Zn] 10 mM) came to 10 min; in series [2] (pH 5, pH 5.0, [Zn] 10 mM), 21 min; in series [2] (pH 5.2, pH 5.2, [Zn] 10 mM) it was 30 min; in series [2] (pH 5.2, pH 5.2, [Zn] 20 mM), 37 min; in series [2] (pH 5.4, pH 5.4, [Zn] 10 mM), 44 min; in series [2] (pH 5.6, pH 5.6, [Zn] 10 mM), 72 min. Besides, in series [2] (pH 5.6, pH 5.6, [Zn] 20 mM), the half-life at 0.5 mM stood at 77 min.
On to `CN1CCN2CC(=O)[O][Mn][O]C(=O)CN(CC1)Cc1cc(NC(=O)c3cc(C(=O)Nc4cc5nc(c4)CN4CCN(C)CCN(CC(=O)[O][Mn][O]C(=O)C4)C5)cc(C(=O)Nc4cc5nc(c4)CN4CCN(C)CCN(CC(=O)[O][Mn][O]C(=O)C4)C5)c3)cc(n1)C2` [Example 2, manganese(II) complex of N1,N3,N5-tris[3,6,9,15-tetraaza-3,9-bis-(carbonylmethyl)-6-methyl-bicyclo[9.3.1]pentadeca-13-trienyl]benzene-1,3,5-tricarboxamide], for which the “Relaxivity Water @ 20 MHz, 37° C.” value in series [1] was found to be 3.8 mM⁻¹ s⁻¹. In series [3], the “Relaxivity Human Serum @ 60 MHz, 37° C.” value came out at 10.5 mM⁻¹ s⁻¹. In series [4], the Water residence time is on record as 14 ns.
`CN1CCN2CC(=O)[O][Mn][O]C(=O)CN(CC1)Cc1cc(NC(=O)c3ccccc3)cc(n1)C2` [Example 6, manganese complex of N,13-Benzamide-3,6,9,15-tetraaza-3,9-bis-(carboxymethyl)-6-methyl-bicyclo[9.3.1]pentadeca-1(14),11(15),12-triene]: the “Relaxivity Human Serum @ 60 MHz, 37° C.” value in series [3] stood at 8.8 mM⁻¹ s⁻¹.
